# Assay results from publication PMC3914206.
# Legend:
# Format in all cases: binding
# Set-up in all cases: KINOMEscan: ABL1(F317L)-phosphorylated / KINOMEscan: ABL1(H396P)-nonphosphorylated / KINOMEscan: ABL1(H396P)-phosphorylated / KINOMEscan: ABL1(M351T)-phosphorylated / KINOMEscan: ABL1(T315I)-phosphorylated / KINOMEscan: ABL1-nonphosphorylated / KINOMEscan: ABL1-phosphorylated / KINOMEscan: ACVR2A / KINOMEscan: ACVR2B / KINOMEscan: ADCK3 / KINOMEscan: ADCK4 / KINOMEscan: AKT1 / KINOMEscan: AKT3 / KINOMEscan: ALK / KINOMEscan: ARK5 / KINOMEscan: AURKA / KINOMEscan: AURKC / KINOMEscan: BIKE / KINOMEscan: BMPR1A / KINOMEscan: BMPR1B / KINOMEscan: BMX / KINOMEscan: BRK / KINOMEscan: BRSK1 / KINOMEscan: BRSK2 / KINOMEscan: CAMK1 / KINOMEscan: CAMK1D / KINOMEscan: CAMK1G / KINOMEscan: CAMK2A / KINOMEscan: CAMK2B / KINOMEscan: AAK1 / KINOMEscan: CAMK2D / KINOMEscan: CAMK2G / KINOMEscan: ABL1(F317I)-nonphosphorylated / KINOMEscan: ABL1(F317I)-phosphorylated / KINOMEscan: ABL1(F317L)-nonphosphorylated: unit: % Ctrl
# Conditions in all cases: Compound Concentration 10 µM
# panel of 442 kinases [1] = molecular target: T1, panel of 442 kinases (Homo sapiens, UniProt P00519, M351T)
# T1 construct: purchased KINOMEscan
# From the text: (§1) We assessed the selectivity of members of this scaffold using the KINOMEscan methodology across a near comprehensive panel of 442 kinases [[18,27]].
# panel of 442 kinases [2] = molecular target: T2, panel of 442 kinases (Homo sapiens, UniProt P46734)
# T2 construct: purchased KINOMEscan
# T2 sequence (P46734 1-347): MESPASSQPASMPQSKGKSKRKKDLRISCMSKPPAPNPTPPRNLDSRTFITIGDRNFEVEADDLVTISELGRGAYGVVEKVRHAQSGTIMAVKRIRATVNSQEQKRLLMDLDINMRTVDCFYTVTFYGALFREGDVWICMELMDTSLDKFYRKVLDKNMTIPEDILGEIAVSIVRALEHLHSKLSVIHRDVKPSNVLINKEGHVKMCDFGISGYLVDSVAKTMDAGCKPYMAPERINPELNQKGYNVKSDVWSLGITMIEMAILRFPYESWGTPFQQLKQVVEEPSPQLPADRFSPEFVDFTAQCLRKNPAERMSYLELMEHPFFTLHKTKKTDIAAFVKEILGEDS
# From the text: as §1
# panel of 442 kinases [3] = molecular target: T3, panel of 442 kinases (Homo sapiens, UniProt P49840)
# T3 construct: purchased KINOMEscan
# From the text: as §1
# T3 sequence (P49840 whole entry): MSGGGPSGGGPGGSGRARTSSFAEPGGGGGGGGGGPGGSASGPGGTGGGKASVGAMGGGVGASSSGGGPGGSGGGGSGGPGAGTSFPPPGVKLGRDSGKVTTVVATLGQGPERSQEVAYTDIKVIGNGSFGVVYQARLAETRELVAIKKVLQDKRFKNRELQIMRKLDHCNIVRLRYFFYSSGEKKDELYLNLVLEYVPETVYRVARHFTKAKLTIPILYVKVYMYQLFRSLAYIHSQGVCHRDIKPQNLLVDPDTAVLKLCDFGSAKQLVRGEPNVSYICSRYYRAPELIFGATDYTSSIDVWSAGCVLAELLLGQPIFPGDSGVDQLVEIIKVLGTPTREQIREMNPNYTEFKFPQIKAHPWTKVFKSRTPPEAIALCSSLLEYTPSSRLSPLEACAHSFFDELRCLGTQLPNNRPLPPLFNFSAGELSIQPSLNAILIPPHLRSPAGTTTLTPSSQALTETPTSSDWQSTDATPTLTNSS
SMILES,KINOMEscan: ABL1(M351T)-phosphorylated (panel of 442 kinases [1]),KINOMEscan: MEK3 (panel of 442 kinases [2]),KINOMEscan: GSK3A (panel of 442 kinases [3])
COc1cc(C(=O)N2CCC(N3CCN(C)CC3)CC2)ccc1Nc1ncc2c(n1)N(C)c1ccccc1C(=O)N2C [15 (LRRK2-IN-1)],94,75,100
COc1cc(C(=O)N2CCC(N3CCN(C)CC3)CC2)ccc1Nc1ncc2c(n1)N1CCc3cccc(c31)C(=O)N2C [Compound 24],77,65,–
"COc1cc(C(=O)N2CCC(N3CCN(C)CC3)CC2)ccc1Nc1ncc2c(n1)N(C1CCCC1)c1ccccc1C(=O)N2C [Compound 25, 11-cyclopentyl-2-((2-methoxy-4-(4-(4-methylpiperazin-1-yl)piperidine-1-carbonyl)phenyl)amino)-5-methyl-5H-benzo[e]pyrimido[5,4-b][1,4]diazepin-6(11H)-one]",80,73,100
CCOc1cc(C(=O)N2CCC(N3CCN(C)CC3)CC2)ccc1Nc1ncc2c(n1)N(C1CCCC1)c1ccccc1C(=O)N2C [Compound 26],89,86,100
